Calls of active or inactive are those of the source. The rule behind the calls is not given here.
Legend:
[1] = test system: Radical scavenging activity; test: Antioxidant activity assessed as DPPH free radical scavenging activity at 1 mM after 30 mins by spectrophotometric analysis relative to control; type: functional
[2] = test system: Radical scavenging activity
Description: Antioxidant activity assessed as DPPH free radical scavenging activity after 30 mins by spectrophotometric analysis

Acetylcholinesterase = Acetylcholinesterase (Electrophorus electricus, UniProt O42275)
Description: Inhibition of electric eel AChE using acetylcholine iodide as substrate preincubated for 15 mins prior to substrate addition by Ellman's method

[3] = test system: Radical scavenging activity; test: Antioxidant activity assessed as DPPH free radical scavenging activity at 1.32 mM after 30 mins by spectrophotometric analysis relative to control; type: functional
[4] = target: Amyloid-beta precursor protein (Homo sapiens) (UniProt P05067); test: Neuroprotective activity against amyloid beta (1 to 42)-induced toxicity in normal cognition human platelet-SH-SY5Y cell cybrid at 2.5 uM preincubated for 3 hrs by MTT assay; type: functional, cell-based
Amyloid-beta precursor protein (Homo sapiens), sequence (P05067 whole entry): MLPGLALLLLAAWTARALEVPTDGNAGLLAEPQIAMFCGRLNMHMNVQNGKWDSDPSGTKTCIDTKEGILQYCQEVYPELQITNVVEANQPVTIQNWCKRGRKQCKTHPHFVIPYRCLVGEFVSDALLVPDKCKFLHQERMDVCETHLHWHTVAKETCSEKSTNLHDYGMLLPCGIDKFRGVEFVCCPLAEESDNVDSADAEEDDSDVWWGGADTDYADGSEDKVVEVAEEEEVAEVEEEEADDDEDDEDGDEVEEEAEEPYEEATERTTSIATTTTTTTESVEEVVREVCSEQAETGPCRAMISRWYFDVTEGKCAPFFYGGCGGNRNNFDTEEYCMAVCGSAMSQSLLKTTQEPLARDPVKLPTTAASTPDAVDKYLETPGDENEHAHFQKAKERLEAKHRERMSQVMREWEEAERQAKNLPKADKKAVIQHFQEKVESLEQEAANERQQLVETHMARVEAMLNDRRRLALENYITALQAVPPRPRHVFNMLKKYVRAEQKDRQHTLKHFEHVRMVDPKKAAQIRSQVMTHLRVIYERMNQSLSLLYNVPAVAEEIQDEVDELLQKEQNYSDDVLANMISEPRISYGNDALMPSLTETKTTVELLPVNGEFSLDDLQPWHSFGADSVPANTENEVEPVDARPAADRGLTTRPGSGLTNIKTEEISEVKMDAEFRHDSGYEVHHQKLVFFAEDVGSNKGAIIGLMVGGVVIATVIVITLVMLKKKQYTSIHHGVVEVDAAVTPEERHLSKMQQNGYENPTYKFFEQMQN

[5] = target: Amyloid-beta precursor protein (Homo sapiens) (UniProt P05067); test: Neuroprotective activity against amyloid beta (1 to 42)-induced toxicity in Alzheimer's disease patient platelet-SH-SY5Y cell cybrid at 2.5 uM preincubated for 3 hrs by MTT assay; type: functional, cell-based
[6] = target: Amyloid-beta precursor protein (Homo sapiens) (UniProt P05067); test: Neuroprotective activity against amyloid beta (1 to 42)-induced toxicity in human SH-SY5Y cells at 2.5 uM preincubated for 3 hrs by MTT assay; type: functional, cell-based
[7] = target: Amyloid-beta precursor protein (Homo sapiens) (UniProt P05067); test: Neuroprotective activity against amyloid beta (1 to 42)-induced toxicity in mild cognitive impairment patient platelet-SH-SY5Y cell cybrid at 2.5 uM preincubated for 3 hrs by MTT assay; type: functional, cell-based
[8] = test system: Radical scavenging activity; test: Antioxidant activity assessed as DPPH free radical scavenging activity at 1.22 mM after 30 mins by spectrophotometric analysis relative to control; type: functional

Acetylcholinesterase, sequence (O42275 whole entry): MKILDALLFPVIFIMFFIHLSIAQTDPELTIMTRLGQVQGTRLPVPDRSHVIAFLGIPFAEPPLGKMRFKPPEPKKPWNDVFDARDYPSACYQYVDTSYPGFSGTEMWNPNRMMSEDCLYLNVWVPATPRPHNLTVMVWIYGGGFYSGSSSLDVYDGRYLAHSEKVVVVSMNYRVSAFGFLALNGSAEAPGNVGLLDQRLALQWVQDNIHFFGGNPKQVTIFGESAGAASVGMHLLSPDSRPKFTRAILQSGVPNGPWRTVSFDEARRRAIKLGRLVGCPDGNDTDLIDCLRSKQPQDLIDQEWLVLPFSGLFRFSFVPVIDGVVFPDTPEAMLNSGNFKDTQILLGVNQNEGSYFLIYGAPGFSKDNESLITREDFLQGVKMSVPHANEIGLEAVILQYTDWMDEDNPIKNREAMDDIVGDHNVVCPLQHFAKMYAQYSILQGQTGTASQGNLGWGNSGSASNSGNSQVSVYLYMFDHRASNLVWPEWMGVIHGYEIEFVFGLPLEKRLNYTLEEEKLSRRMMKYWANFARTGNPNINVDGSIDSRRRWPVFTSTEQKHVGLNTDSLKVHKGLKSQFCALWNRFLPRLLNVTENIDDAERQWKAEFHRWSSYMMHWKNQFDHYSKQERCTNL

Row | Compound | Activity [1] [%] | EC50 [2] [µM] | IC50 (Acetylcholinesterase) [µM] | Activity [3] [%] | Activity [4] | Activity [5] | Activity [6] | Activity [7] | Activity [8] [%]
1 | O=C(CCCCCNc1c2c(nc3ccccc13)CCCC2)NCc1ccc(-c2nc3ccccc3s2)cc1 | 25 | > 1000 | 1.84 |  |  |  |  |  | 
2 | O=C(CCCCCNc1c2c(nc3ccccc13)CCCC2)Nc1ccc(-c2nc3ccccc3s2)cc1 | 25 |  | 0.34 | 32 | Active |  |  |  | 
3 | O=C(CCCCCNc1c2c(nc3ccccc13)CCCC2)NCCCCCc1nc2ccccc2s1 | 25 | > 1000 | 0.76 |  |  | Active | Active | Active | 
4 | O=C(CCCCCNc1c2c(nc3ccccc13)CCCC2)NCCCc1nc2ccccc2s1 | 25 |  | 0.96 |  |  | Active | Active | Active | 25
5 | O=C(CCCCCNc1c2c(nc3ccccc13)CCCC2)Nc1ccc(Cc2nc3ccccc3s2)cc1 | 25 | > 1000 | 0.57 |  |  |  |  |  | 

— ChEMBL document CHEMBL2406942, “Design, synthesis and neuroprotective evaluation of novel tacrine-benzothiazole hybrids as multi-targeted compounds against Alzheimer's disease” (Bioorg Med Chem, 2013)
